Data published in US10123978B2, “Patch for treating dermatophytosis” (MEIJI SEIKA PHARMA CO., LTD., priority 2012, dated 2018).
Counter-ions that a name gives are not always drawn.

Columns and labels:
[1] = system: Trichophyton mentagrophytes (T. mentagrophytes) ATCC18748; assay: Antifungal activity test against dermatophytes (MIC); format: cell-based; conditions: 80% growth inhibiting concentration, RPMI1640/MOPS, 28° C., 3 days, WST8
Protocol: (§1) Measurement of the anti-trichophyton activity of the compound of the formula (I) comprised in the patch of the present invention was carried out by the following method. The compound to be evaluated was used by dissolving in dimethyl sulfoxide (DMSO). As a medium for the test, RPMI1640 medium containing 0.165M of 3-morpholinopropanesulfonic acid (MOPS) was used. As fungi to be tested, Trichophyton mentagrophytes (T. mentagrophytes) ATCC18748 or Trichophyton rubrum (T. rubrum) ATCC10218 was used. The testing fungal strain was apportioned to 100 μl with a concentration of 1×10^4 conidia/ml, mixed with a compound to be evaluated on a 96-well half area plate so that the DMSO concentration became 1%, and cultured at a cultivation temperature of 28° C. for 3 days (Trichophyton mentagrophytes) or 4 days (Trichophyton rubrum). Thereafter, 5 μl of Cell Counting Kit 8 (WST8) was added thereto, and absorbances at 450 nm and 595 nm were measured to use these as background values. Thereafter, these were cultivated at 28° C. for 5 hours (Trichophyton mentagrophytes) or overnight (Trichophyton rubrum) to cause a color, and absorbances at 450 nm and 595 nm were measured again. A growth inhibiting rate was calculated from the difference to the background values, and a 80% growth inhibiting concentration was made an MIC value (μg/ml).

[2] = system: Trichophyton rubrum (T. rubrum) ATCC10218; assay: as above; format: cell-based; conditions: 80% growth inhibiting concentration, RPMI1640/MOPS, 28° C., 4 days, WST8
Protocol: as §1

Row | Compound | MIC (T. mentagrophytes) [1] | MIC (T. rubrum) [2] | MIC ([1]; Trichophyton mentagrophytes, 72 h) [µg/mL] | MIC ([2]; Trichophyton rubrum, 96 h) [µg/mL]
1 | Cc1nn(-c2ccccc2O)c(C)c1F [compound 53] | B (2 to 8 μg/ml) | B (4-16 μg/ml) | – | –
2 | Cc1nn(-c2cc(F)ccc2O)c(C)c1C [compound 20] | C (16 to 32 μg/ml) | D (>32-64 μg/ml) | – | –
3 | Cc1cc(C)n(-c2cccc(C)c2O)n1 [compound 51] | E (Inhibited less than 50% with 32 μg/ml) | D (>32-64 μg/ml) | – | –
4 | CN(C/C=C/C#CC(C)(C)C)Cc1cccc2ccccc12 [Terbinafine hydrochloride, reference compound] | – | – | ≤ 1 | ≤ 2
5 | Cc1cc(C)n(-c2c(C)cccc2O)n1 [compound 46] | E (Inhibited less than 50% with 32 μg/ml) | D (>32-64 μg/ml) | – | –

Further lines, results first:

Row | MIC (T. mentagrophytes) [1] | MIC (T. rubrum) [2] | MIC ([1]; Trichophyton mentagrophytes, 72 h) [µg/mL] | MIC ([2]; Trichophyton rubrum, 96 h) [µg/mL] | Compound
6 | C (16 to 32 μg/ml) | C (16-32 μg/ml) | – | – | Cc1cc(C)n(-c2cccc(O)c2O)n1 [compound 15]
7 | A (≤1 μg/ml) | A (≤2 μg/ml) | – | – | Cc1cc(C)n(-c2ccc(Br)cc2O)n1 [compound 54]
8 | B (2 to 8 μg/ml) | B (4-16 μg/ml) | – | – | Cc1cc(C)n(-c2ccc(C(F)(F)F)cc2O)n1 [compound 50]
